Holding throughout (format): cell-based
The test system of series [1] is human non-small cell lung cancer cell strain A549. As to the kind of experiment: MTT proliferation inhibition, A549. To be noted: Homo sapiens, A549 cells, 48 h, read-out: Inhibitory activity (IC50) against proliferation, A549. How it is done: (§1) The anti-tumor activity of the compounds of the present invention was determined by the method of methyl thiazolyl tetrazolium (MTT), Bardoxolone Methyl (CDDO-Me) being selected as a positive control medicament.
(§2) Instruments: ultra-clean bench (SW-CJ-1FD, AIRTECH, Suzhou Antai Airtech Co. Ltd.), constant-temperature CO2 incubator (3111, Thermo, USA), inverted biomicroscope (IX71, OLYMPUS, Japan), ELISA microplate reader (Model 680, BIO-RAD, USA), platform shaker (Kylin-bell lab Instruments), autoclave (YXO.SG4I.280, Shanghai Huaxian), and centrifuge (SIGMA).
(§3) Reagents: DMEM (GIBCO), fetal bovine serum (GIBCO), trypsin (SIGMA), and DMSO (SIGMA).
(§4) Cell strains: human non-small cell lung cancer cell strain A549, human liver cancer cell strain HepG2, human breast cancer cell strain MCF-7, human renal tubular epithelial cells HK-2, rat embryonic cardiomyocytes H9C2 (all provided by Jiangsu KeyGEN BioTECH Co., Ltd.).
(§5) Methods: the cryopreserved cell strains were resuscitated and cultured in a CO2 incubator at a constant temperature of 37° C. with liquid being changed once daily. Plating was carried out when the cell strains were in a good state in the exponential phase. 1 mL of 0.25% trypsin solution was added for digestion for 1-2 min. The cell status was observed under the microscope, and when the adherent cells became round and shrunk, the digestion solution was aspirated and 1-2 mL of a DMEM medium containing 10% fetal bovine serum was added to obtain a cell suspension, on which a cell count was performed. The amount of required cell suspension was calculated on the basis of 5×10^4 cells per well and the total number of wells. The cell suspension was inoculated on a 96-well plate at 100 μL/well, the surroundings being blocked with PBS, followed by incubation in a CO2 incubator at a constant temperature of 37° C. for 24 h.
(§6) The test medicament, positive control medicament CDDO-Me, and blank control group DMSO were prepared in DMEM media to a final concentration of 5 μM/well, each medicament being placed in 3 replicate wells, followed by incubation for 48 h. The MTT reagent was added to the 96-well plate at 10 μL/well to further incubate for 4 h. The medium in the plate was aspirated and 100 μL of DMSO was added to each well, followed by shaking on the platform shaker for 10 min such that the crystals were dissolved. The absorbance of each well was examined by the ELISA microplate reader at a wavelength of 570 nm, and the cell inhibition rate was calculated according to the formula hereinafter. The mean value of three preliminary screening results was taken as the final inhibition rate thereof.
(§7) Cell inhibition rate (%)=[(OD value of blank control−OD value of dosing cohort)/OD value of blank control group]×100%

Series [2] concerns human breast cancer cell strain MCF-7. Description: MTT proliferation inhibition, MCF-7. The settings on record: Homo sapiens, MCF7, MCF-7 cells, 48 h, read-out: Inhibitory activity (IC50) against proliferation, MCF-7. On the procedure: as §1, §2, §3, §4, §5, §6, §7
The subject of series [3] is human liver cancer cell strain HepG2. As to the kind of experiment: MTT proliferation inhibition, HepG2. To be noted: Homo sapiens, HepG2 cells, 48 h, read-out: Inhibitory activity (IC50) against proliferation, HepG2. On the procedure: as §1, §2, §3, §4, §5
The MTT reagent was added to the 96-well plate at 10 μL/well to further incubate for 4 h. The medium in the plate was aspirated and 100 μL of DMSO was added to each well, followed by shaking on the platform shaker for 10 min such that the crystals were dissolved. […] The mean value of three preliminary screening results was taken as the final inhibition rate thereof.
as §7

Series [4] relates to human renal tubular epithelial cells HK-2. As to the kind of experiment: MTT proliferation inhibition / toxicity, HK-2. The settings on record: for IC50: Homo sapiens, HK-2 cells, MTT, 48 h, read-out: Inhibitory activity (IC50) against proliferation, HK-2; for toxicity to human renal tubular epithelial cells HK-2: statement in words. How it is done: as §1, §2, §3, §4, §5, §6, §7

Series [5] concerns rat embryonic cardiomyocytes H9C2. As to the kind of experiment: MTT proliferation inhibition / toxicity, H9C2. The settings on record: Rattus norvegicus, H9C2 cardiomyocytes, MTT, 48 h, read-out: Inhibitory activity (IC50) against proliferation, H9C2. On the procedure:
as §1, §2, §3, §4, §5, §6, §7

The source of these data is patent US20230023332A1, “OLEAN-PHENYLACRYLAMIDE DERIVATIVE, METHOD FOR PREPARING SAME, AND USE THEREOF” (Lunan Pharmaceutical Group Corporation, priority 2019, published 2023).

SMILES strings stand for the structures. Like-named read-outs stand apart in the source and are kept apart here.

As to `CC1(C)CC[C@]2(NC(=O)/C=C/c3ccccc3)CC[C@]3(C)[C@H](C(=O)C=C4[C@@]5(C)C=C(C#N)C(=O)C(C)(C)[C@@H]5CC[C@]43C)[C@@H]2C1` [Compound I-1], the IC50 in series [1] turned out to be 599 ± 377 nM; in series [2], 574 ± 21 nM; in series [3] it was 409 ± 16 nM; in series [4], 799 ± 92 nM; in series [5], 251 ± 8 nM. Further, the “toxicity to human renal tubular epithelial cells HK-2” value (“toxicity” below) in series [4] is on record as “lower toxicity”.

As to `COc1ccc(/C(C#N)=C/C(=O)N[C@]23CCC(C)(C)C[C@H]2[C@H]2C(=O)C=C4[C@@]5(C)C=C(C#N)C(=O)C(C)(C)[C@@H]5CC[C@@]4(C)[C@]2(C)CC3)cc1` [Compound I-15], the IC50 in series [1] amounted to 658 ± 58 nM; in series [2] it was 551 ± 140 nM; in series [3], 524 ± 32 nM; in series [4] it was 350 ± 37 nM; in series [5] it was 146 ± 12 nM.

As for `COc1ccc(/C=C(\C#N)C(=O)N[C@]23CCC(C)(C)C[C@H]2[C@H]2C(=O)C=C4[C@@]5(C)C=C(C#N)C(=O)C(C)(C)[C@@H]5CC[C@@]4(C)[C@]2(C)CC3)cc1` [Compound I-9], the IC50 in series [1] turned out to be 624 ± 111 nM; in series [2] it was 1130 ± 40 nM; in series [3] it was 816 ± 14 nM; in series [4], 748 ± 341 nM; in series [5] it was 417 ± 19 nM. Also, the “toxicity” value in series [4] was “lower toxicity”.

`CC1(C)CC[C@]2(NC(=O)/C(C#N)=C/c3ccc(C(F)(F)F)cc3)CC[C@]3(C)[C@H](C(=O)C=C4[C@@]5(C)C=C(C#N)C(=O)C(C)(C)[C@@H]5CC[C@]43C)[C@@H]2C1` [Compound I-10]: the IC50 in series [1] is 362 ± 12 nM; in series [2] it was 460 ± 105 nM; in series [3], 297 ± 11 nM; in series [4], 234 ± 117 nM; in series [5] it was 233 ± 10 nM.

With `Cc1ccc(/C=C/C(=O)N[C@]23CCC(C)(C)C[C@H]2[C@H]2C(=O)C=C4[C@@]5(C)C=C(C#N)C(=O)C(C)(C)[C@@H]5CC[C@@]4(C)[C@]2(C)CC3)cc1` [Compound I-2], the IC50 in series [1] was 549 ± 10 nM; in series [2], 547 ± 74 nM; in series [3] it was 772 ± 63 nM; in series [4], 1390 ± 32 nM; in series [5], 218 ± 7 nM. Moreover, the “toxicity” value in series [4] was “lower toxicity”.

Regarding `CC1(C)CC[C@]2(NC(=O)/C=C/c3ccc(F)cc3)CC[C@]3(C)[C@H](C(=O)C=C4[C@@]5(C)C=C(C#N)C(=O)C(C)(C)[C@@H]5CC[C@]43C)[C@@H]2C1` [Compound I-5], the IC50 in series [1] came to 788 ± 345 nM; in series [2], 1310 ± 127 nM; in series [3], 785 ± 96 nM; in series [4], 2825 ± 4 nM; in series [5] it was 316 ± 1 nM. Besides, the “toxicity” value in series [4] is reported as “lower toxicity”.

On to `CC1(C)CC[C@]2(NC(=O)/C=C(\C#N)c3ccc(Cl)cc3)CC[C@]3(C)[C@H](C(=O)C=C4[C@@]5(C)C=C(C#N)C(=O)C(C)(C)[C@@H]5CC[C@]43C)[C@@H]2C1` [Compound I-18], for which the IC50 in series [1] was found to be 300 ± 13 nM; in series [2], 500 ± 170 nM; in series [3] it was 406 ± 17 nM; in series [4], 647 ± 21 nM. The “toxicity” value in series [4] is reported as “lower toxicity”.

As to `Cc1ccc(/C=C(\C#N)C(=O)N[C@]23CCC(C)(C)C[C@H]2[C@H]2C(=O)C=C4[C@@]5(C)C=C(C#N)C(=O)C(C)(C)[C@@H]5CC[C@@]4(C)[C@]2(C)CC3)cc1` [Compound I-8], the IC50 in series [1] was found to be 329 ± 47 nM; in series [2], 789 ± 52 nM; in series [3], 563 ± 23 nM; in series [4] it was 423 ± 30 nM; in series [5], 274 ± 2 nM. Also, the “toxicity” value in series [4] is recorded as “lower toxicity”.

Take `COc1ccc(/C=C/C(=O)N[C@]23CCC(C)(C)C[C@H]2[C@H]2C(=O)C=C4[C@@]5(C)C=C(C#N)C(=O)C(C)(C)[C@@H]5CC[C@@]4(C)[C@]2(C)CC3)cc1` [Compound I-3]: the IC50 in series [1] was determined as 367 ± 18 nM; in series [2] it was 375 ± 38 nM; in series [3] it was 527 ± 133 nM; in series [4], 700 ± 16 nM; in series [5], 174 ± 5 nM. Moreover, the “toxicity” value in series [4] is “lower toxicity”.

For the compound `CC1(C)CC[C@]2(NC(=O)/C=C/c3ccc(Cl)cc3)CC[C@]3(C)[C@H](C(=O)C=C4[C@@]5(C)C=C(C#N)C(=O)C(C)(C)[C@@H]5CC[C@]43C)[C@@H]2C1` [Compound I-6], the IC50 turned out to be 588 ± 36 nM in series [1]; 738 ± 9 nM in series [2]; 482 ± 2 nM in series [3]; 727 ± 430 nM in series [4]; 373 ± 2 nM in series [5]. The “toxicity” value in series [4] is “lower toxicity”.

For the compound `CC1(C)CC[C@]2(NC(=O)/C=C(\C#N)c3ccc(F)cc3)CC[C@]3(C)[C@H](C(=O)C=C4[C@@]5(C)C=C(C#N)C(=O)C(C)(C)[C@@H]5CC[C@]43C)[C@@H]2C1` [Compound I-17], the IC50 in series [1] is 345 ± 174 nM; in series [2] it was 238 ± 8 nM; in series [3], 114 ± 4 nM; in series [4], 229 ± 126 nM.

For `CC1(C)CC[C@]2(NC(=O)/C=C/c3ccc(C(F)(F)F)cc3)CC[C@]3(C)[C@H](C(=O)C=C4[C@@]5(C)C=C(C#N)C(=O)C(C)(C)[C@@H]5CC[C@]43C)[C@@H]2C1` [Compound I-4], the IC50 is 402 ± 20 nM in series [1]; 562 ± 132 nM in series [2]; 412 ± 6 nM in series [3]; 516 ± 72 nM in series [4]; 215 ± 4 nM in series [5]. Also, the “toxicity” value in series [4] is given as “lower toxicity”.

For `CC1(C)CC[C@]2(NC(=O)/C(C#N)=C/c3ccc(F)cc3)CC[C@]3(C)[C@H](C(=O)C=C4[C@@]5(C)C=C(C#N)C(=O)C(C)(C)[C@@H]5CC[C@]43C)[C@@H]2C1` [Compound I-11], the IC50 in series [1] came to 609 ± 67 nM; in series [2], 424 ± 129 nM; in series [3], 337 ± 12 nM; in series [4] it was 308 ± 71 nM; in series [5], 52 ± 1 nM.

As to `CC1(C)CC[C@]2(NC(=O)/C=C(\C#N)c3ccccc3)CC[C@]3(C)[C@H](C(=O)C=C4[C@@]5(C)C=C(C#N)C(=O)C(C)(C)[C@@H]5CC[C@]43C)[C@@H]2C1` [Compound I-13], the IC50 in series [1] came to 414 ± 17 nM; in series [2], 375 ± 130 nM; in series [3], 328 ± 13 nM; in series [4] it was 473 ± 630 nM; in series [5] (H9c2, 48 h) it was 7 ± 9 nM. Further, the “toxicity” value in series [4] is given as “lower toxicity”.

Take `Cc1ccc(/C(C#N)=C/C(=O)N[C@]23CCC(C)(C)C[C@H]2[C@H]2C(=O)C=C4[C@@]5(C)C=C(C#N)C(=O)C(C)(C)[C@@H]5CC[C@@]4(C)[C@]2(C)CC3)cc1` [Compound I-14]: the IC50 is 337 ± 15 nM in series [1]; 432 ± 188 nM in series [2]; 313 ± 35 nM in series [3]; 939 ± 62 nM in series [4]; 14 ± 1 nM in series [5]. Also, in series [4], the “toxicity” value is “lower toxicity”.
